Assay results as given in patent US20070048355A1, “Non-irritating solvent-borne polymeric coatings for application to the skin” (priority 2005, published 2007).

Test system: freshly abraided skin on a finger knuckle
Assay: standard sting test on abraded finger knuckle skin
Assay type: in vivo, human
Settings: for stinging of aliphatic hydrocarbon diluent solvents (in words): neat alkane on abraded skin
Text: The preparations described above were applied to skin that had been carefully abraided shortly before testing to determine whether the stinging and discomfort caused by collodion application could be suppressed by one or more of these agents. The procedure used was to manually scour a finger knuckle using 100 grit garnet sandpaper just to the point of slight bleeding, and then allowing the skin to rest a minute or so until any discomfort, i.e., sensation of irritation, pain or heat, had disappeared prior to challenging the abrasion with a potential chemical irritant. The resultant stinging sensation was compared to that produced with the unmodified commercial New Skin™ collodion product (the “control”). Sting (also termed and described as “burning sensation”) was rated on a five level scale as follows: (−) no sting, (+/−) barely detectable sting, (+) slight sting, (++) moderate sting, (+++) strong sting. […] This method of testing and scoring the level or magnitude of the stinging sensation is referred to herein as the “sting test” or “standard sting test.”
Using the “standard sting test” described above, and similarly abraded skin on a finger knuckle, individual collodion ingredients were tested neat (undiluted). Accordingly, a droplet or two of the mixture or the chemical ingredient was placed on freshly abraided skin.
Several new chemicals and solvents of potential interest were tested, and others that were formerly tested (all in their neat state) were re-tested using the standard sting test procedure and accompanying scoring system described above. Applicant's strategy behind this testing was to find a true solvent or alternatively, a combination of true solvent and either co-solvent or diluent, that would have sufficient volatility to allow rapid drying of a collodion coating without causing stinging when applied to the skin.

[1] = additional testing and re-testing of chemicals and solvents in their neat state, standard sting test
[2] = individual collodion ingredients tested neat (undiluted), a droplet or two on freshly abraided skin

Molecule	LEVEL OF STING [1]	also measured
CC(C)=O [Acetone]	+++	
CCCCCOC(C)=O [Amyl Acetate (mixed isomers), Amyl Acetate]	+/−	LEVEL OF STING [2]: +/−
CCOC(C)=O [Ethyl Acetate]		LEVEL OF STING (in vivo): +++
CCO [Ethyl Alcohol]	+++	LEVEL OF STING [2]: +++
CC(C)O [Isopropyl Alcohol]	++	LEVEL OF STING [2]: ++
CC(=O)OC(C)C [Isopropyl acetate]	+	
COC(C)=O [Methyl acetate]	+++	
CO [Methyl alcohol]	+++	
CCC(C)=O [Methyl ethyl ketone]	+++	
CC(CO)CO [Methyl propanediol]	+	
CCCC(C)=O [Methyl propyl ketone]	++	
CC(C)CO [isobutyl alcohol]	+	
CCCCOC(C)=O [n-Butyl Acetate]	+/−	LEVEL OF STING [2]: +/−
CCCCCCC [n-Heptane]	−	stinging of aliphatic hydrocarbon diluent solvents (in words): none of the aliphatic hydrocarbon diluent solvents that were tested caused any stinging
CCCCCC [n-Hexane]	−	stinging of aliphatic hydrocarbon diluent solvents (in words): none of the aliphatic hydrocarbon diluent solvents that were tested caused any stinging
CCCCCCCC [n-Octane]	−	stinging of aliphatic hydrocarbon diluent solvents (in words): none of the aliphatic hydrocarbon diluent solvents that were tested caused any stinging
CCCOC(C)=O [n-Propyl acetate]	+	
CCCCCO [n-amyl alcohol]	+	
CCCCC [n-pentane]		stinging of aliphatic hydrocarbon diluent solvents (in words): none of the aliphatic hydrocarbon diluent solvents that were tested caused any stinging
CC(=O)OC(C)(C)C [tert-Butyl acetate]	+/−	
Castor Oil		LEVEL OF STING (in vivo): −
Isohexane (e.g., 2-methyl pentane and other isomers)	−	
